Source: patent US20240101552A1, “CARBONYL HETEROCYCLIC COMPOUND AND APPLICATION THEREOF” (SHANGHAI PHARMACEUTICALS HOLDING CO., LTD., priority 2020, published 2024)

Biological target: LANCL2 (Homo sapiens (Human), UniProt Q9NS86)
Assay: SPR (BIACORE S200) kinetic determination of LANCL2-small molecule interactions
Assay type: binding
Settings: for Kd: immobilized LANCL2, 1:1 binding model, pH 6.5, 25° C.; for Rmax (RU): maximum binding force
Protocol: 1.1 Reagent Materials • Ligand: LANCL2 • Running buffer: 20 mM MES, 150 mM NaCl, 0.05% P20, pH 6.5, 1% DMSO
Injection conditions for small molecule compounds: a flow rate of 30 μL/min, a binding time of 60 s, a dissociation time of 300 s.
Running buffer: 20 mM MES, 150 mM NaCl, 0.05% P20, pH 6.5, 1% DMSO.
Sample chamber temperature: 25° C.; analysis temperature: 25° C.
Kinetic determination of LANCL2-small molecule interactions was performed. The kinetic parameters of small molecules BT-11 and L-1 to 60 (analytes) binding to LANCL2 (ligand) were determined using BIACORE S200. Data were generated in triplicate in a dose-dependent manner (5-8 titration points) and analyzed to determine binding models (Langmuir, conformational shifts, etc.), real-time association and dissociation constants, and equilibrium dissociation constants. SPR technology allows the validation of specific LANCL2-phytochemical interactions as well as an increased insight into the gold standard of binding mechanisms and rates. Experiments were performed on carboxymethyl polydextrose (CM5) sensor chips by amine-coupled covalent attachment of LANCL2. Data were analyzed with BIACORE S200T200 evaluation software (version 1), so as to determine affinity binding constants (KD) using a 1:1 binding model.
An optical technique for detecting molecular interactions, SPR, was used to measure the binding affinity between LANCL2 and a ligand thereof (compound to be tested). Purified recombinant LANCL2 protein was immobilized on a BIACORE sensor chip and small molecules were injected onto the protein surface using an equipment of microfluidic system. The change in total mass on the chip surface, corresponding to a small binding to the protein, was measured. […] The equilibrium dissociation constant (Kd) was often used to describe the affinity between a ligand and a protein, such as affinity degree of a ligand binding to a specific protein. Ligand-protein affinity was affected by non-covalent intermolecular interactions between two molecules, such as hydrogen bonding, electrostatic interactions, hydrophobic bonds and van der Waals forces. The steady-state affinity (Kd) for each interaction could be measured by plotting equilibrium binding levels against compound concentrations.

Sequence of LANCL2 (Q9NS86 whole entry, species assumed): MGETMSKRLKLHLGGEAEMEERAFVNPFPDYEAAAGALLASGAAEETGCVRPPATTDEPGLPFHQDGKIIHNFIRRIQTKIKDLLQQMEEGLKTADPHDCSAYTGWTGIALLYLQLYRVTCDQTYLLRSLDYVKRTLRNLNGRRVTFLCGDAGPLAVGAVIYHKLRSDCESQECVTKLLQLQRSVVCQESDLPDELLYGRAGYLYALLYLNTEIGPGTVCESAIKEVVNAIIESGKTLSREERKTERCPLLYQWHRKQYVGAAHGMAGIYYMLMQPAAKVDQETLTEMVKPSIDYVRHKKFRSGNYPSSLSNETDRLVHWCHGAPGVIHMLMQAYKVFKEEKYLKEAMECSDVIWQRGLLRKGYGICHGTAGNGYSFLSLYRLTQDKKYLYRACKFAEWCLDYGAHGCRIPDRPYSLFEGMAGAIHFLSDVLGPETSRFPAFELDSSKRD

`O=C(c1cccc(-c2nc3ccccc3[nH]2)n1)N1CCC2(CC1)CCN(C(=O)c1cccc(-c3nc4ccccc4[nH]3)n1)CC2` [Embodiment L-9, (3,9-diazaspiro[5.5]undecane-3,9-diyl)bis((6-(1H-benzo[d]imidazol-2-yl)pyridin-2-yl)methanone)] was tested, and the “binding activity compared with positive reference compound BT-11” value was “better binding activities than the positive reference compound BT-11”, the Kd was 3.44 µM and the “Rmax (RU)” value was 3.9 RU.
For `O=C(Nc1ccccc1NC(=O)c1ccnc(N2CCOCC2)n1)c1ccnc(N2CCOCC2)n1` [Embodiment L-13, N,N′-(1,2-phenylene)bis(2-morpholinopyrimidine-4-carboxamide)], the Kd was 38.3 µM and the “Rmax (RU)” value was 1.5 RU.
For `O=C(NC1C2CN(C(=O)c3cccc(-c4nc5ccccc5[nH]4)n3)CC21)c1ccnc(N2CCOCC2)n1` [Embodiment L-14, N-(3-(6-(1H-benzo[d]imidazol-2-yl)picolinoyl)-3-azabicyclo[3.1.0]hexan-6-yl)-2-morpholinopyrimidine-4-carboxamide], the Kd was 21.1 µM and the “Rmax (RU)” value was 7.1 RU.
In the case of `O=C(c1cccc(-c2nc3ccccc3[nH]2)n1)N1CC2CC1CN2C(=O)c1ccnc(N2CCOCC2)n1` [Embodiment L-18, (5-(6-(1H-benzo[d]imidazol-2-yl)picolinoyl)-2,5-diazabicyclo[2.2.1]heptan-2-yl)(2-morpholinopyrimidin-4-yl)methanone], the Kd is reported as 127 µM and the “Rmax (RU)” value is reported as 5.2 RU.
With `O=C(NC1CCN(C(=O)c2cccc(-c3nc4ccccc4[nH]3)n2)CC1)c1ccnc(Nc2ccccc2)n1` [Embodiment L-19] the Kd was 25.3 µM and the “Rmax (RU)” value was 9.7 RU.
In the case of `O=C(NC1CCN(C(=O)c2cccc(-c3nc4ccccc4[nH]3)n2)CC1)C1CCCC(c2nc3ccccc3[nH]2)C1` [Embodiment L-20], the Kd is reported as 43.3 µM and the “Rmax (RU)” value is reported as 5.3 RU.
`O=C(NC1CCN(C(=O)c2cccc(-c3nc4ccccc4[nH]3)n2)CC1)c1ccnc(Nc2ccccn2)n1` [Embodiment L-21] was tested, and the Kd was 9.88 µM and the “Rmax (RU)” value was 7.3 RU.
In the case of `O=C(NC1C2CN(C(=O)c3cccc(-c4nc5ccccc5[nH]4)n3)CC21)c1ccnc(Nc2ccccc2)n1` [Embodiment L-23, N-(3-(6-(1H-benzo[d]imidazol-2-yl)picolinoyl)-3-azabicyclo[3.1.0]hexan-6-yl)-2-(phenylamino)pyrimidine-4-carboxamide], the Kd is reported as 10.3 µM and the “Rmax (RU)” value is reported as 7.5 RU.
In the case of `O=C(c1cccc(-c2nc3ccccc3[nH]2)n1)N1CCC2(CC1)CCN(C(=O)c1ccnc(Nc3ccccc3)n1)CC2` [Embodiment L-27, (9-(6-(1H-benzo[d]imidazol-2-yl)picolinoyl)-3,9-diazaspiro[5.5]undecan-3-yl)(2-(phenylamino)pyrimidin-4-yl)methanone], the Kd is reported as 13.3 µM and the “Rmax (RU)” value is reported as 6.5 RU.
In the case of `CN1CCC2(CC1)CCN(c1ccc(NC(=O)C3CCN(C(=O)c4cccc(-c5nc6ccccc6[nH]5)n4)C3)cc1)CC2` [Embodiment L-35, 1-(6-(1H-benzo[d]imidazol-2-yl)picolinoyl)-N-(4-(9-methyl-3,9-diazaspiro[5.5]undecan-3-yl)phenyl)pyrrolidine-3-carboxamide], the Kd is reported as 66.1 µM and the “Rmax (RU)” value is reported as 14.4 RU.
`O=C(NC1CCN(C(=O)c2cccc(-c3cn4ccccc4n3)c2)CC1)c1ccnc(Nc2ccccc2)n1` [Embodiment L-42, N-(1-(3-(imidazo[1,2-a]pyridin-2-yl)benzoyl)piperidin-4-yl)-2-(phenylamino)pyrimidine-4-formamide] was tested, and the Kd was 13.2 µM and the “Rmax (RU)” value was 12 RU.
In the case of `O=C(c1cccc(Nc2ccccc2)n1)N1CC2CN(C(=O)c3cccc(-c4nc5ccccc5[nH]4)n3)CC2C1` [Embodiment L-46, (5-(6-(1H-benzo[d]imidazol-2-yl)picolinoyl)hexahydropyrrolo[3,4-c]pyrrol-2(1H)-yl)(6-(phenylamino)pyridin-2-yl)methanone], the Kd is reported as 30.4 µM and the “Rmax (RU)” value is reported as 10.6 RU.
For `O=C(NC1C2CN(C(=O)c3cccc(-c4nc5ccccc5[nH]4)n3)CC21)c1cccc(Nc2ccccn2)n1` [Embodiment L-52, N-(3-(6-(1H-benzo[d]imidazol-2-yl)picolinoyl)-3-azabicyclo[3.1.0]hexan-6-yl)-6-(pyridin-2-ylamino)picolinamide], the “binding activity compared with positive reference compound BT-11” value was “better binding activities than the positive reference compound BT-11”, the Kd was 2.83 µM and the “Rmax (RU)” value was 3.9 RU.
`O=C(c1ccnc(Nc2ccccn2)c1)N1CC2CN(C(=O)c3cccc(-c4cn5ccccc5n4)n3)CC2C1` [Embodiment L-54, (5-(6-(imidazo[1,2-a]pyridin-2-yl]picolinoyl)hexahydropyrrolo[3,4-c]pyrrol-2(1H)-yl)(2-(pyridin-2-ylamino)pyridin-4-yl)methanone] was tested, and the Kd was 27.8 µM and the “Rmax (RU)” value was 8.4 RU.
With `O=C(c1cccc(-c2nc3ccccc3[nH]2)n1)N1CCC(c2nc3ccccc3[nH]2)CC1` [Embodiment L-57, (4-(1H-benzo[d]imidazol-2-yl)piperidin-1-yl)(6-(1H-benzo[d]imidazol-2-yl)pyridin-2-yl)methanone] the Kd was 8.02 µM and the “Rmax (RU)” value was 8 RU.
In the case of `O=C(c1cccc(-c2nc3ccccc3[nH]2)n1)N1CCC2(CCCN(C(=O)c3cccc(-c4nc5ccccc5[nH]4)n3)C2)CC1` [Embodiment L-58, (2,9-diazaspiro[5.5]undecane-2,9-diyl)bis(6-(1H-benzo[d]imidazol-2-yl)pyridin-2-yl)methanone], the Kd is reported as 21.5 µM and the “Rmax (RU)” value is reported as 3.3 RU.
With `O=C(c1cccc(-c2nc3ccccc3[nH]2)n1)N1CCC2(CC1)CCN(C(=O)c1cccc(-c3nc4ccccc4[nH]3)n1)C2` [Embodiment L-59, (2,8-diaza[4.5]decane-2,8-diyl)bis(6-(1H-benzo[d]imidazol-2-yl)pyridin-2-yl)methanone] the Kd was 14.9 µM and the “Rmax (RU)” value was 3.6 RU.
With `O=C(c1ccc(-c2nc3ccccc3[nH]2)nc1)N1CCC2(CCN(C(=O)c3cccc(-c4nc5ccccc5[nH]4)n3)C2)C1` [Embodiment L-60, (7-(6-(1H-benzo[d]imidazol-2-yl)nicotinoyl)-2,7-diazaspiro[4.4]nonan-2-yl)(6-(1H-benzo[d]imidazol-2-yl)pyridin-2-yl)methanone] the Kd was 27.4 µM and the “Rmax (RU)” value was 3.6 RU.
With `O=C(c1cccc(-c2nc3ccccc3[nH]2)n1)N1CCC2(CC1)CCN(C(=O)c1ccnc(Nc3ccccc3)n1)C2` [Embodiment L-62, (8-(6-(1H-benzo[d]imidazol-2-yl)picolinoyl)-2,8-diazaspiro[4.5]dec-2-yl)(2-(phenylamino)pyrimidin-4-yl)methanone] the Kd was 29.3 µM and the “Rmax (RU)” value was 5.7 RU.
For `O=C(c1cccc(Nc2ccccc2)n1)N1CCCC2(CCN(C(=O)c3cccc(-c4nc5ccccc5[nH]4)n3)CC2)C1` [Embodiment L-63, (9-(6-(1H-benzo[d]imidazol-2-yl)picolinoyl)-2,9-diazaspiro[5.5]undecan-2-yl)(6-(phenylamino)pyridin-2-yl)methanone], the Kd was 53.5 µM and the “Rmax (RU)” value was 7.6 RU.
`O=C(c1cccc(-c2nc3ccccc3[nH]2)n1)N1CCC2(CCCN(C(=O)c3ccnc(Nc4ccccc4)n3)C2)CC1` [Embodiment L-64, (9-(6-(1H-benzo[d]imidazol-2-yl)picolinoyl)-2,9-diazaspiro[5.5]undecan-2-yl)(2-(phenylamino)pyrimidin-4-yl)methanone] was tested, and the Kd was 48.8 µM and the “Rmax (RU)” value was 6.1 RU.
In the case of `O=C(c1cccc(Nc2ccccc2)n1)N1CCC2(CCN(C(=O)c3cccc(-c4nc5ccccc5[nH]4)n3)C2)C1` [Embodiment L-65, (7-(6-(1H-benzo[d]imidazol-2-yl)picolinoyl)-2,7-diazaspiro[4.4]non-2-yl)(6-(phenylamino)pyridin-2-yl)methanone], the Kd is reported as 26 µM and the “Rmax (RU)” value is reported as 6.5 RU.
With `O=C(c1cccc(-c2nc3ccccc3[nH]2)n1)N1CCC2(CCN(C(=O)c3nccc(Nc4ccccc4)n3)C2)C1` [Embodiment L-66, (7-(6-(1H-benzo[d]imidazol-2-yl)picolinoyl)-2,7-diazaspiro[4.4]non-2-yl)(4-(phenylamino)pyrimidin-2-yl)methanone] the Kd was 31.8 µM and the “Rmax (RU)” value was 7.2 RU.
For `O=C(c1cccc(-c2nc3ccccc3[nH]2)n1)N1CC2CN(C(=O)c3ccc4ccccc4n3)CC2C1` [Embodiment L-69, (5-(6-(1H-benzo[d]imidazol-2-yl)picolinoyl)hexahydropyrrolo[3,4-c]pyrrol-2(1H)-yl)(quinolin-2-yl)methanone], the Kd was 21.7 µM and the “Rmax (RU)” value was 6.1 RU.
With `Cc1[nH]c2ccccc2c1C(=O)N1CC2CN(C(=O)c3cccc(-c4nc5ccccc5[nH]4)n3)CC2C1` [Embodiment L-71, (5-(6-(1H-benzo[d]imidazol-2-yl)picolinoyl)hexahydropyrrolo[3,4-c]pyrrol-2(1H)-yl)(2-methyl-1H-indol-3-yl)methanone] the Kd was 40.6 µM and the “Rmax (RU)” value was 5.9 RU.
